Literature values in patent publication US20210236523A1, “P[…] FOR HEADACHE DISORDERS” (priority 2020, published 2021).
“Also recorded” adds a separate entry of the source.

Key:
dopamine receptor = settings: cited from earlier work
5-HT1 = settings: cited from earlier work
5-HT2A = 5-HT2A (Homo sapiens, UniProt P28223); settings: cited from earlier work
5-HT2B = 5-HT2B (Homo sapiens, UniProt P41595); settings: cited from earlier work
cluster headache = settings: et al., cited from earlier work

Sequence of 5-HT2A (P28223 whole entry): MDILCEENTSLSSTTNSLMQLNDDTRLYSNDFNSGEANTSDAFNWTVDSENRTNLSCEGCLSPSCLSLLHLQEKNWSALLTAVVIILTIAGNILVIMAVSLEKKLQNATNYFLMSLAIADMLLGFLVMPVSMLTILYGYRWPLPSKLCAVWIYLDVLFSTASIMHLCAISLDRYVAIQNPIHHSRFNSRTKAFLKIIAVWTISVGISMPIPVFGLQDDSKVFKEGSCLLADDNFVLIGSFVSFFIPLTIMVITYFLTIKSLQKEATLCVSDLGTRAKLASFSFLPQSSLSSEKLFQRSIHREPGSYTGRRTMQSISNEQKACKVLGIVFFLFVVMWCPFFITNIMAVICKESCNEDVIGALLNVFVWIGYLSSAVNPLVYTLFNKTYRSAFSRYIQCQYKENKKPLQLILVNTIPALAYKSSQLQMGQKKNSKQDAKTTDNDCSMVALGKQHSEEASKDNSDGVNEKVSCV
Sequence of 5-HT2B (P41595 whole entry, species assumed): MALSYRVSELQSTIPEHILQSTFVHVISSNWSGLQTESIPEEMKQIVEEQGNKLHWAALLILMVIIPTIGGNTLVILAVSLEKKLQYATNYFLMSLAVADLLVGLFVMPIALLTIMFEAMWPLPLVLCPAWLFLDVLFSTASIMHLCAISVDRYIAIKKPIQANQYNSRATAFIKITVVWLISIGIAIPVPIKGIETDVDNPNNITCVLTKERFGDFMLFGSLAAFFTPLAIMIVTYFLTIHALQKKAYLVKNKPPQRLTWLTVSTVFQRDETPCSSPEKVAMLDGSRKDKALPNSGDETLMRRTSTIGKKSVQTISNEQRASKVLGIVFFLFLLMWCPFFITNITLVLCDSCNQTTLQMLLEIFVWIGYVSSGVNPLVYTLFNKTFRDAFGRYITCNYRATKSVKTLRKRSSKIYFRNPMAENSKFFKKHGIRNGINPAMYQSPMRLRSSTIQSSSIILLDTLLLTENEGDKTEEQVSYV

CN(C)CCc1c[nH]c2cccc(O)c12 [psilocin]
effect on the dopamine receptor (dopamine receptor): no effect | affinity for 5-HT1 (5-HT1): low affinity | affinity for 5-HT2A (5-HT2A): high affinity; also recorded: modest affinity | affinity for 5-HT2B (5-HT2B): high affinity

CCN(CC)C(=O)[C@@H]1C=C2c3cccc4[nH]cc(c34)C[C@H]2N(C)C1 [LSD, lysergic acid diethylamide]
reported effects in cluster headache (cluster headache; Sewell, 2006, Schindler et al., 2015): stop acute cluster attacks, terminate cluster cycles, and induce and prolong remission from cluster headache

CCN(CC)C(=O)[C@@H]1C=C2c3cccc4[nH]c(Br)c(c34)C[C@H]2N(C)C1 [BOL-148, 2-bromo-lysergic acid diethylamide]
effect on cluster headache cycle and attacks (cluster headache; three single oral doses of 30 μg/kg, Karst, 2010): either break a cluster headache cycle or considerably improve the frequency and intensity of attacks
